Drawing on US8618300B2, “Indolizine inhibitors of leukotriene production” (Boehringer Ingelheim International GmbH, priority 2008, dated 2013), this text covers IC50 for 24 compounds.

The test concerns the target T1, recombinant human FLAP protein (Homo sapiens, UniProt P20292).
T1 construct: made in house; host or cells: Sf9 insect cells (100,000 x g membrane pellet)
T1 sequence (P20292 1-161): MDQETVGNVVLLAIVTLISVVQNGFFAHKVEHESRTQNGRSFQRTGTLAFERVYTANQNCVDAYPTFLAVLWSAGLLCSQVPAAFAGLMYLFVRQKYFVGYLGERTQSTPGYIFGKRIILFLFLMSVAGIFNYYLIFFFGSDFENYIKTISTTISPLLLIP
Kind of test: FLAP binding assay, Scintillation Proximity Assay, displacement of [125I]L-691,831. To be noted: read-out: hFLAP binding IC50. Here is the method: Compounds are assessed for the ability to bind to FLAP in a binding assay that measures compound-specific displacement of an iodinated (^1251) FLAP inhibitor via a Scintillation Proximity Assay format (adapted from S. Charleson et al., Mol. Pharmacol., 1992, 41, 873-879).
Cell pellets produced from sf9 insect cells expressing recombinant human FLAP protein are resuspended in buffer A [15 mM Tris-HCl (pH 7.5), 2 mM MgCl2, 0.3 mM EDTA, 1 mM PMSF]. The cells are lysed with a Dounce homogenizer and the material is centrifuged at 10,000×g for 10 minutes. The supernatant is then collected and centrifuged at 100,000×g for 60 minutes. To prepare membrane protein for an assay, an aliquot of the 100,000×g pellet is resuspended in 1 ml of buffer A, Dounce homogenized, and finally subjected to polytron mixing (30 seconds). Membrane protein (25 μl, 5 μg) is mixed with WGA SPA beads (Amersham) and stirred for 1 h. To an assay plate (Perkin Elmer FlexiPlate) is added 25 μl of test compound prepared in Binding buffer [100 mM Tris (pH 7.5), 140 mM NaCl, 5% glycerol, 2 mM EDTA, 0.5 mM TCEP, 0.05% Tween 20], 25 μl of [^125I]L-691,831 (an iodinated analog of MK-591, Charleson et al. Mol. Pharmacol., 41, 873-879, 1992) and finally 50 μl of the bead/protein mixture. (final concentrations: beads, 200 μg/well; protein, 5 μg/well; [^125I] probe, 0 08 nM/well (17 nCi/well). The plates are shaken for 2 h before reading on a Microbeta plate reader. Non-specific binding is determined by the addition of 10 μM cold L-691,831 compound.
On the technique in general: SPA uses beads or plates that emit light when radiolabelled molecules are held near them.
As for `Cc1nc(COc2ccc3c(C(=O)c4ccc(Cl)cc4)c(CC(C)(C)C(=O)NS(C)(=O)=O)c(C(=O)C(C)(C)C)n3c2)cs1` [3-{1-[(4-chlorophenyl)carbonyl]-3-(2,2-dimethylpropanoyl)-6-[(2-methyl-1,3-thiazol-4-yl)methoxy]indolizin-2-yl}-2,2-dimethyl-N-(methylsulfonyl)propanamide], the IC50 is 4 nM. In the case of `Cc1nc(COc2ccc3c(C(=O)c4ccc(Cl)cc4)c(CC(C)(C)C(=O)O)c(C(=O)C(C)(C)C)n3c2)cs1` [3-{1-[(4-chlorophenyl)carbonyl]-3-(2,2-dimethylpropanoyl)-6-[(2-methyl-1,3-thiazol-4-yl)methoxy]indolizin-2-yl}-2,2-dimethylpropanoic acid], the concentration for half-maximal inhibition (IC50) worked out at 38 nM.

Turning to `Cc1cccc(COc2ccc3c(C(=O)c4ccc(Cl)cc4)c(CC(C)(C)C(=O)O)c(C(=O)C(C)(C)C)n3c2)n1` [3-{1-[(4-chlorophenyl)carbonyl]-3-(2,2-dimethylpropanoyl)-6-[(6-methylpyridin-2-yl)methoxy]indolizin-2-yl}-2,2-dimethylpropanoic acid], the IC50 came out at 8 nM.

With `Cc1nc(COc2ccn3c(C(=O)c4ccc(Cl)c(Cl)c4)c(CC(C)(C)C(=O)O)c(C(=O)C(C)(C)C)c3c2)cs1` [3-{3-[(3,4-dichlorophenyl)carbonyl]-1-(2,2-dimethylpropanoyl)-7-[(2-methyl-1,3-thiazol-4-yl)methoxy]indolizin-2-yl}-2,2-dimethylpropanoic acid], the IC50 was found to be 111 nM. To `Cc1csc(COc2ccn3c(C(=O)c4ccc(Cl)c(Cl)c4)c(CC(C)(C)C(=O)O)c(C(=O)C(C)(C)C)c3c2)n1` [3-{3-[(3,4-dichlorophenyl)carbonyl]-1-(2,2-dimethylpropanoyl)-7-[(4-methyl-1,3-thiazol-2-yl)methoxy]indolizin-2-yl}-2,2-dimethylpropanoic acid] belongs 1 nM.

In the case of `Cc1cccc(COc2ccn3c(C(=O)c4ccc(Cl)c(Cl)c4)c(CC(C)(C)C(=O)O)c(C(=O)C(C)(C)C)c3c2)n1` [3-{3-[(3,4-dichlorophenyl)carbonyl]-1-(2,2-dimethylpropanoyl)-7-[(6-methylpyridin-2-yl)methoxy]indolizin-2-yl}-2,2-dimethylpropanoic acid], the concentration for half-maximal inhibition (IC50) stood at 1 nM. The same measure for `Cc1nc(COc2ccn3c(C(=O)c4cc(Cl)cc(Cl)c4)c(CC(C)(C)C(=O)O)c(C(=O)C(C)(C)C)c3c2)cs1` [3-{3-[(3,5-dichlorophenyl)carbonyl]-1-(2,2-dimethylpropanoyl)-7-[(2-methyl-1,3-thiazol-4-yl)methoxy]indolizin-2-yl}-2,2-dimethylpropanoic acid]: 1 nM; for `Cc1csc(COc2ccn3c(C(=O)c4cccc(Cl)c4)c(CC(C)(C)C(=O)O)c(C(=O)C(C)(C)C)c3c2)n1` [3-{3-[(3-chlorophenyl)carbonyl]-1-(2,2-dimethylpropanoyl)-7-[(4-methyl-1,3-thiazol-2-yl)methoxy]indolizin-2-yl}-2,2-dimethylpropanoic acid]: 1 nM. The same measure for `CC(C)c1ccn2c(C(=O)N(C)c3ccc(Br)cc3)c(CC(C)(C)C(=O)O)c(C(=O)C(C)(C)C)c2c1` [3-{3-[(4-bromophenyl)(methyl)carbamoyl]-1-(2,2-dimethylpropanoyl)-7-(propan-2-yl)indolizin-2-yl}-2,2-dimethylpropanoic acid]: 156 nM. The same measure for `CC(C)(C)C(=O)c1c(CC(C)(C)C(=O)O)c(C(=O)c2ccc(Br)cc2)n2ccc(OCc3ccccn3)cc12` [3-{3-[(4-bromophenyl)carbonyl]-1-(2,2-dimethylpropanoyl)-7-(pyridin-2-ylmethoxy)indolizin-2-yl}-2,2-dimethylpropanoic acid]: 99 nM; for `Cc1nc(COc2ccn3c(C(=O)c4ccc(Cl)c(C)c4)c(CC(C)(C)C(=O)O)c(C(=O)C(C)(C)C)c3c2)cs1` [3-{3-[(4-chloro-3-methylphenyl)carbonyl]-1-(2,2-dimethylpropanoyl)-7-[(2-methyl-1,3-thiazol-4-yl)methoxy]indolizin-2-yl}-2,2-dimethylpropanoic acid]: 2 nM; for `Cc1csc(COc2ccn3c(C(=O)c4ccc(Cl)c(C)c4)c(CC(C)(C)C(=O)O)c(C(=O)C(C)(C)C)c3c2)n1` [3-{3-[(4-chloro-3-methylphenyl)carbonyl]-1-(2,2-dimethylpropanoyl)-7-[(4-methyl-1,3-thiazol-2-yl)methoxy]indolizin-2-yl}-2,2-dimethylpropanoic acid]: 1 nM. `CC(C)(C)C(=O)c1c(CC(C)(C)C(=O)O)c(C(=O)c2ccc(Cl)cc2)n2ccc(OCc3nccs3)cc12` [3-{3-[(4-chlorophenyl)carbonyl]-1-(2,2-dimethylpropanoyl)-7-(1,3-thiazol-2-ylmethoxy)indolizin-2-yl}-2,2-dimethylpropanoic acid]: the IC50 worked out at 25 nM. For the compound `CC(C)(C)C(=O)c1c(CC(C)(C)C(=O)O)c(C(=O)c2ccc(Cl)cc2)n2ccc(OCc3cscn3)cc12` [3-{3-[(4-chlorophenyl)carbonyl]-1-(2,2-dimethylpropanoyl)-7-(1,3-thiazol-4-ylmethoxy)indolizin-2-yl}-2,2-dimethylpropanoic acid], the 50% inhibitory concentration (IC50) turned out to be 118 nM. To `CC(C)(C)C(=O)c1c(CC(C)(C)C(=O)O)c(C(=O)c2ccc(Cl)cc2)n2ccc(OCc3ccccn3)cc12` [3-{3-[(4-chlorophenyl)carbonyl]-1-(2,2-dimethylpropanoyl)-7-(pyridin-2-ylmethoxy)indolizin-2-yl}-2,2-dimethylpropanoic acid] belongs 44 nM; to `CC(C)(C)C(=O)c1c(CC(C)(C)C(=O)O)c(C(=O)c2ccc(Cl)cc2)n2ccc(OCc3ncccn3)cc12` [3-{3-[(4-chlorophenyl)carbonyl]-1-(2,2-dimethylpropanoyl)-7-(pyrimidin-2-ylmethoxy)indolizin-2-yl}-2,2-dimethylpropanoic acid], 64 nM; to `CC(C)(C)C(=O)c1c(CC(C)(C)C(=O)O)c(C(=O)c2ccc(Cl)cc2)n2ccc(OCc3ccc4ccccc4n3)cc12` [3-{3-[(4-chlorophenyl)carbonyl]-1-(2,2-dimethylpropanoyl)-7-(quinolin-2-ylmethoxy)indolizin-2-yl}-2,2-dimethylpropanoic acid], 8 nM. The same measure for `COc1nc(COc2ccn3c(C(=O)c4ccc(Cl)cc4)c(CC(C)(C)C(=O)O)c(C(=O)C(C)(C)C)c3c2)cs1` [3-{3-[(4-chlorophenyl)carbonyl]-1-(2,2-dimethylpropanoyl)-7-[(2-methoxy-1,3-thiazol-4-yl)methoxy]indolizin-2-yl}-2,2-dimethylpropanoic acid]: 69 nM. The same measure for `Cc1nc(COc2ccn3c(C(=O)c4ccc(Cl)cc4)c(CC(C)(C)C(=O)O)c(C(=O)C(C)(C)C)c3c2)cs1` [3-{3-[(4-chlorophenyl)carbonyl]-1-(2,2-dimethylpropanoyl)-7-[(2-methyl-1,3-thiazol-4-yl)methoxy]indolizin-2-yl}-2,2-dimethylpropanoic acid]: 18 nM; for `COc1c(C)cnc(COc2ccn3c(C(=O)c4ccc(Cl)cc4)c(CC(C)(C)C(=O)O)c(C(=O)C(C)(C)C)c3c2)c1C` [3-{3-[(4-chlorophenyl)carbonyl]-1-(2,2-dimethylpropanoyl)-7-[(4-methoxy-3,5-dimethylpyridin-2-yl)methoxy]indolizin-2-yl}-2,2-dimethylpropanoic acid]: 58 nM; for `COc1ccnc(COc2ccn3c(C(=O)c4ccc(Cl)cc4)c(CC(C)(C)C(=O)O)c(C(=O)C(C)(C)C)c3c2)c1` [3-{3-[(4-chlorophenyl)carbonyl]-1-(2,2-dimethylpropanoyl)-7-[(4-methoxypyridin-2-yl)methoxy]indolizin-2-yl}-2,2-dimethylpropanoic acid]: 8 nM.

Regarding `COc1cccc(COc2ccn3c(C(=O)c4ccc(Cl)cc4)c(CC(C)(C)C(=O)O)c(C(=O)C(C)(C)C)c3c2)n1` [3-{3-[(4-chlorophenyl)carbonyl]-1-(2,2-dimethylpropanoyl)-7-[(6-methoxypyridin-2-yl)methoxy]indolizin-2-yl}-2,2-dimethylpropanoic acid], the half-inhibitory concentration (IC50) is 8 nM. The same measure for `Cc1cccc(COc2ccn3c(C(=O)c4ccc(Cl)cc4)c(CC(C)(C)C(=O)O)c(C(=O)C(C)(C)C)c3c2)n1` [3-{3-[(4-chlorophenyl)carbonyl]-1-(2,2-dimethylpropanoyl)-7-[(6-methylpyridin-2-yl)methoxy]indolizin-2-yl}-2,2-dimethylpropanoic acid]: 17 nM; for `CC(C)(C)CC(=O)c1c(CC(C)(C)C(=O)O)c(C(=O)c2ccc(Cl)cc2)n2ccc(OCc3ccc4ccccc4n3)cc12` [3-{3-[(4-chlorophenyl)carbonyl]-1-(3,3-dimethylbutanoyl)-7-(quinolin-2-ylmethoxy)indolizin-2-yl}-2,2-dimethylpropanoic acid]: 85 nM.

As usually defined, the IC50 is the concentration that gives 50% inhibition.
